Data from article PMC6835763, “Influence of Short Cationic Lipopeptides with Fatty Acids of Different Chain Lengths on Bacterial Biofilms Formed on Polystyrene and Hydrogel Surfaces” (Pharmaceutics, 2019).
Read-outs that look alike come from different tables or passages of the source. Where a SMILES comes first, the peptide text is derived from it. Bridges are numbered along the chain shown (N, C = ends). Roman numbers before positions name the chains, in order. The star is where a group is joined. Palmitoyl = CCCCCCCCCCCCCCCC(=O)*; Myristoyl = CCCCCCCCCCCCCC(=O)*; Lauroyl = CCCCCCCCCCCC(=O)*

Assays:
Format in all cases: cell-based
[1] = tested on: Enterococcus faecalis ATCC 29212
Procedure: (§1) The biofilms of bacteria associated with the biofilm-related infections were cultured on 96-well flat bottom PS and on CL placed in 24-well plates. The bacteria at initial inoculums of 5 × 10^8 CFU/mL in MHB II were added to the plates and incubated at 37 °C under aerobic conditions. After 24 h of incubation, all cultures were rinsed three times with PBS and fresh medium was added. Subsequently, the obtained biofilm cultures were exposed to solutions of antimicrobials applied at graded concentrations ranging from 1 to 512 μg/mL for 24 h at 37 °C. The anti-biofilm activity of antimicrobials was visualized by resazurin (final concentration per sample = 0.005%) in the same way as in the MBFIC assay. All experiments were performed in triplicate and included growth controls (positive control: bacterial suspension without antimicrobials) and sterility controls (negative controls: sterile MBH II medium).

[2] = tested on: Staphylococcus aureus ATCC 25923
Procedure: as §1

[3] = tested on: Staphylococcus epidermidis ATCC 14990
Procedure: as §1

[4] = tested on: Proteus mirabilis PCM 543
Procedure: as §1

[5] = tested on: Pseudomonas aeruginosa ATCC 9027
Procedure: as §1

[6] = tested on: Escherichia coli ATCC 25922
Procedure: as §1

gram-positive strains = assay: MIC, broth microdilution, range over strains; conditions: range over the gram-positive strains, liquid culture
Procedure: The MICs of synthetic lipopeptides and conventional antimicrobials were determined using the broth microdilution method according to the Clinical and Laboratory Standard Institute (CLSI) guidelines on reference strains. […] The PS were incubated under aerobic conditions at 37 °C for 18 h. The MIC (μg/mL) was assumed as the lowest concentration of the compound that inhibited the growth of the microorganisms. All experiments were performed in triplicate and included the growth and sterility controls.

[7] = 24 h biofilm on 96-well flat bottom PS, 5 × 10^8 CFU/mL in MHB II, exposure 1–512 μg/mL for 24 h at 37 °C, resazurin, triplicate
[8] = 24 h biofilm on contact lenses (CL) in 24-well plates, 5 × 10^8 CFU/mL in MHB II, exposure 1–512 μg/mL for 24 h at 37 °C, resazurin, triplicate

| Compound | MBEC E. faecalis, CL ([1]; ATCC 29212, 24 h) | MBEC S. aureus, CL ([2]; ATCC 25923, 24 h) | MBEC S. epidermidis, CL ([3]; ATCC 14990, 24 h) | MBEC P. mirabilis, CL ([4]; PCM 543, 24 h) | MBEC P. aeruginosa, CL ([5]; ATCC 9027, 24 h) | MBEC E. coli, CL ([6]; ATCC 25922, 24 h) | further results |
| --- | --- | --- | --- | --- | --- | --- | --- |
| CCCCCCCCCCCCCC(=O)N[C@@H](CCCCN)C(=O)N[C@@H](CCCNC(=N)N)C(N)=O [Lipopeptide 4, C14-KR-NH2] (Myristoyl-Lys-Arg-NH2) | 256 µg/mL | 512 µg/mL | 32 µg/mL | >512/>512 μg/mL | >512/>512 μg/mL | 256 µg/mL | – |
| (C10)2-KKKK-NH2 [Lipopeptide 9] | – | – | – | – | – | – | MBEC E. faecalis, PS [1, 7]: 32 µg/mL; MBEC E. faecalis, CL [1, 8]: 128 µg/mL; MBEC S. aureus, PS [2, 7]: 64 µg/mL; MBEC S. aureus, CL [2, 8]: 128 µg/mL; MBEC S. epidermidis, PS [3, 7]: 16 µg/mL; MBEC S. epidermidis, CL [3, 8]: 64 µg/mL; MBEC P. mirabilis, PS [4, 7]: >512/>512 μg/mL; MBEC P. mirabilis, CL [4, 8]: >512/>512 μg/mL; MBEC P. aeruginosa, PS [5, 7]: 512 µg/mL; MBEC P. aeruginosa, CL [5, 8]: 256 µg/mL; MBEC E. coli, PS [6, 7]: 64 µg/mL; MBEC E. coli, CL [6, 8]: 128 µg/mL; concentrations eliminating the EC biofilm (MBEC range) ([6]; range over PS and CL): 64 to 128 µg/mL |
| CCCCCCCCCCCC(=O)N[C@@H](CCCCN)C(=O)N[C@@H](CCCCN)C(=O)N[C@@H](CSSC[C@H](NC(=O)[C@H](CCCCN)NC(=O)[C@H](CCCCN)NC(=O)CCCCCCCCCCC)C(N)=O)C(N)=O [Lipopeptide 1, C12-KKC-NH2] (I: Lauroyl-Lys-Lys-Cys-NH2 / II: Lauroyl-Lys-Lys-Cys-NH2; disulfide I:3-II:3) | 128 µg/mL | 256 µg/mL | 128 µg/mL | >512/>512 μg/mL | 256 µg/mL | 256/256 μg/mL | concentrations inhibiting growth of gram-positive strains (MIC range) (gram-positive strains): 2 to 8 µg/mL |
| CCCCCCCCCCCCCCCC(=O)N[C@@H](CCCCN)C(=O)NCC(=O)N[C@@H](CCCCN)C(N)=O [Lipopeptide 5, C16-KGK-NH2] (Palmitoyl-Lys-Gly-Lys-NH2) | 32 µg/mL | 512 µg/mL | 128 µg/mL | >512/>512 μg/mL | 256 µg/mL | 64 µg/mL | concentrations eliminating the EC biofilm (MBEC range) ([6]; ATCC 25922, 24 h): 64 to 128 µg/mL |
| CCCCCCCCCCCCCCCC(=O)N[C@@H](CCCCN)C(=O)N[C@@H](CCCCN)C(=O)N[C@@H](CCCCN)C(N)=O [Lipopeptide 7, C16-KKK-NH2] | 16 µg/mL | 256 µg/mL | 64 µg/mL | 512/>512 μg/mL | 512/>512 μg/mL | 128 µg/mL | concentrations eliminating the EC biofilm (MBEC range) ([6]; ATCC 25922, 24 h): 64 to 128 µg/mL |
| CCCCCCCCCCCCCC(=O)N[C@@H](CCCCN)C(=O)N[C@@H](CCCCN)C(=O)N[C@@H](CSSC[C@H](NC(=O)[C@H](CCCCN)NC(=O)[C@H](CCCCN)NC(=O)CCCCCCCCCCCCC)C(N)=O)C(N)=O [Lipopeptide 3, C14-KKC-NH2] (I: Myristoyl-Lys-Lys-Cys-NH2 / II: Myristoyl-Lys-Lys-Cys-NH2; disulfide I:3-II:3) | 256/256 μg/mL | 128/128 μg/mL | 512 µg/mL | 512/>512 μg/mL | > 512 µg/mL | 512/512 μg/mL | – |
| CCCCCCCCCCCCCCCC(=O)N[C@@H](CCCCN)C(=O)N[C@@H](CCCNC(=N)N)C(N)=O [Lipopeptide 8, C16-KR-NH2] (Palmitoyl-Lys-Arg-NH2) | 64/64 μg/mL | 128 µg/mL | 32 µg/mL | > 512 µg/mL | 32 µg/mL | 128 µg/mL | – |
